Experimental data reported in US11111245B2, “Derivatives of N-cycloalkyl/heterocycloalkyl-4-(imidazo[1,2-a]pyridine)pyrimidin-2-amine as therapeutic agents” (Aucentra Therapeutics Pty Ltd, priority 2017, dated 2021).

Assays:
Assay type in all cases: biochemical
CDK9/T1 = CDK9/T1 (Homo sapiens, UniProt P50750); assay: ADP Glo Kinase assay CDK9/T1; details: CDK9T1; read-out: CDK inhibition, Ki (μM) CDK9T1
Procedure: (§1) Eurofins Pharma Discovery or Reaction Biology Corporation Kinase Profiler services were used to measure inhibition of CDKs and other kinases by radiometric assay. Inhibition of CDK4/D1, CDK6/D3 and CDK9/T1 were also determined in-house using ADP Glo Kinase assays (Promega Corporation, Madison, USA). Briefly, the kinase reaction for CDK4/D1 and CDK6/D3 was performed with kinase reaction buffer ([…] Tris base pH 7.5, 20 mM MgCl2, 0.4 mM DTT), 0.1 mg/ml BSA and RB-CTF substrate (retinoblastoma protein 1 C-terminal fraction). For CDK9/CyclinT1, the kinase reaction was performed with standard assay buffer and Kinase Dilution Buffer and RBER-IRStide substrate. Serial dilutions of 1:3 were prepared for test compounds for 10 concentrations (from 10 μM to 0.5 nM). The kinase reactions were started by addition of ATP, incubated for 40 min at 37° C. and then stopped by adding 10 μL of ADP Glo reagent. After incubation at room temperature in the dark for 40 min, 20 μL of kinase detection reagent was added per well and incubated for 40 min. Luminescence was measured using an EnVision Multilabel plate reader (PerkinElmer, Buckinghamshire, UK). Positive and negative controls were performed in the presence and absence of CDK kinases, respectively. Half-maximal inhibition (IC50) values were calculated using a 4-parameter logistic non-linear regression model with Graphpad prism (Version 6.0). Apparent inhibition constants (Ki) values were calculated from Km (ATP) and IC50 values for the respective kinases.

CDK4/D1 = CDK4/D1 (Homo sapiens, UniProt P11802); assay: ADP Glo Kinase assay CDK4/D1; details: CDK4D1; compound at 10 μM; read-out: residual activity (%) at 10 μM CDK4D1
Procedure: as §1

CDKs and other kinases [1] = biological target: T1, CDKs and other kinases (Homo sapiens, UniProt P24941); assay: Radiometric kinase assay (Eurofins Pharma Discovery or Reaction Biology Corporation Kinase Profiler); details: CDK2A; for remaining activity at 10 µM: compound at 10 μM, read-out: residual activity (%) at 10 μM CDK2A; for Ki: read-out: CDK inhibition, Ki (μM) CDK2A
T1 construct: other: CDK2A; residual activity (%) at 10 μM CDK2A; compound at 10 μM
Procedure: as §1

CDKs and other kinases [2] = biological target: T2, CDKs and other kinases (Homo sapiens, UniProt P06493); assay: as above; details: CDK1B; for Ki: read-out: CDK inhibition, Ki (μM) CDK1B; for remaining activity at 10 µM: compound at 10 μM, read-out: residual activity (%) at 10 μM CDK1B
T2 construct: other: CDK1B; residual activity (%) at 10 μM CDK1B; compound at 10 μM
Procedure: as §1

CDKs and other kinases [3] = biological target: T3, CDKs and other kinases (Homo sapiens, UniProt P50613); assay: as above; details: CDK7H; for Ki: read-out: CDK inhibition, Ki (μM) CDK7H; for remaining activity at 10 µM: compound at 10 μM, read-out: residual activity (%) at 10 μM CDK7H
T3 construct: other: CDK7H; residual activity (%) at 10 μM CDK7H; compound at 10 μM
Procedure: as §1

T3 sequence (P50613 whole entry): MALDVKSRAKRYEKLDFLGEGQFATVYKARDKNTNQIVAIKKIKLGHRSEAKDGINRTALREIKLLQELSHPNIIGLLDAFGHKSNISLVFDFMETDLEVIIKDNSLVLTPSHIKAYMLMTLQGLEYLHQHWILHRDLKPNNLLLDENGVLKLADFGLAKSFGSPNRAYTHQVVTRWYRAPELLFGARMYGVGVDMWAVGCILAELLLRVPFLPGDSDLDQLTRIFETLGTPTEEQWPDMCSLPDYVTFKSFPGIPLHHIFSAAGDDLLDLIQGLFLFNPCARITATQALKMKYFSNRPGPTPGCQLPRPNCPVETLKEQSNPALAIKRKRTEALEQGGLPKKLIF
T2 sequence (P06493 whole entry): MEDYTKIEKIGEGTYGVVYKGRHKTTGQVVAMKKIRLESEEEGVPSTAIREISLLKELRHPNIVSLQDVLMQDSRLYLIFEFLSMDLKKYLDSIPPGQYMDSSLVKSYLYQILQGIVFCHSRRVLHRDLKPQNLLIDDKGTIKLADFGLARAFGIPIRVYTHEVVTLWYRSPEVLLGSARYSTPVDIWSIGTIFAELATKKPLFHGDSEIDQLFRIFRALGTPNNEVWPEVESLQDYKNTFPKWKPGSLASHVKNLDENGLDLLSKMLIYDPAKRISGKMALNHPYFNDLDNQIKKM
Chain of CDK9/T1 (P50750 whole entry): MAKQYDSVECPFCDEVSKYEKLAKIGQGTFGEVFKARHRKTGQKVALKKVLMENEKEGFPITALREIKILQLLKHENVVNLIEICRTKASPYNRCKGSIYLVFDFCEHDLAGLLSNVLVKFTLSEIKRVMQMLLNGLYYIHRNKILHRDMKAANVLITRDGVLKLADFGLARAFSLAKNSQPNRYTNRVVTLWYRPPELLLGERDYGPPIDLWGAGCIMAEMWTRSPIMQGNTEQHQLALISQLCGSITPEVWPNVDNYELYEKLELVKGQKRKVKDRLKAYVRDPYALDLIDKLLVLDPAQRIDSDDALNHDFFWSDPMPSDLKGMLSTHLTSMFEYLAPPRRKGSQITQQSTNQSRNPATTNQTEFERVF
Chain of CDK9/T1 (O60563 whole entry partner): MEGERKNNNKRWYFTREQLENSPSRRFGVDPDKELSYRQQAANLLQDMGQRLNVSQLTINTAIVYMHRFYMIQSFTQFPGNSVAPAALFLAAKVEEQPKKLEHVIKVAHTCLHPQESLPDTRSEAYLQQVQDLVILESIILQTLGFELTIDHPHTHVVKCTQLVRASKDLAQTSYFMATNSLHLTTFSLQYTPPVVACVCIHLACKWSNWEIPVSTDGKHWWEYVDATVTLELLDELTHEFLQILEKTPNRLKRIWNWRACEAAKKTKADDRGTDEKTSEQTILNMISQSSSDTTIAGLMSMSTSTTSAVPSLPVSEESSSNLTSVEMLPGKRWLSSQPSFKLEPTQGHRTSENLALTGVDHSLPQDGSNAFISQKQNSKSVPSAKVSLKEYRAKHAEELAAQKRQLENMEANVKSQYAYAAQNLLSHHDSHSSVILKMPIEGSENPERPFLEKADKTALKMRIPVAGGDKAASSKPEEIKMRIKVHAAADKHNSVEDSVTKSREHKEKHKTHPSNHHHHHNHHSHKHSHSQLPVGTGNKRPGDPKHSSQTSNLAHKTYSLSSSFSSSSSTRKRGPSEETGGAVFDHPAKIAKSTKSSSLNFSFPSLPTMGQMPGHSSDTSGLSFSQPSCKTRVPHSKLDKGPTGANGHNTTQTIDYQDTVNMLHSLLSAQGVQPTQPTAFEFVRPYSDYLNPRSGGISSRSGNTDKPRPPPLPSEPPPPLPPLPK
Chain of CDK4/D1 (P11802 whole entry): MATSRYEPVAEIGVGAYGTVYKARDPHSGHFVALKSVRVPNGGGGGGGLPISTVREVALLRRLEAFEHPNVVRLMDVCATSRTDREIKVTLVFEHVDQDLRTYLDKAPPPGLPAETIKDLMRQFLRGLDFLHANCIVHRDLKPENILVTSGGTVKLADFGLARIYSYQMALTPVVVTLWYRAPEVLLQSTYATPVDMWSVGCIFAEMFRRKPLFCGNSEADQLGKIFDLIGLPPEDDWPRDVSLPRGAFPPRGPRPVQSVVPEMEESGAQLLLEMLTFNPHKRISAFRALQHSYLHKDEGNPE
Chain of CDK4/D1 (P24385 whole entry partner): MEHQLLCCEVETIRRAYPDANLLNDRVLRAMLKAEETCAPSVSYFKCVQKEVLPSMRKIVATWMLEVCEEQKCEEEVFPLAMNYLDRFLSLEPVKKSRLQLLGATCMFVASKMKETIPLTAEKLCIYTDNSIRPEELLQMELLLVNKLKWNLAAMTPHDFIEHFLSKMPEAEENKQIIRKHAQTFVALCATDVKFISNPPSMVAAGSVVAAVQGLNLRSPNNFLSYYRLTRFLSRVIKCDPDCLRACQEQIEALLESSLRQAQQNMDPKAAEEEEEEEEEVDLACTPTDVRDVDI

Row | Compound | Ki (CDK9/T1) [µM] | remaining activity at 10 µM (CDK4/D1) [%] | remaining activity at 10 µM (CDKs and other kinases [1]) [%] | Ki (CDKs and other kinases [2]) [µM] | Ki (CDKs and other kinases [3]) [µM] | remaining activity at 10 µM (CDKs and other kinases [2]) [%] | remaining activity at 10 µM (CDKs and other kinases [3]) [%] | Ki (CDKs and other kinases [1]) [µM]
1 | Fc1cnc(N[C@H]2CC[C@H](NC3CCOCC3)CC2)nc1-c1cnc2ccc(-c3ccccc3)cn12 [Compound 161, (1r,4r)-N^1-(5-fluoro-4-(6-phenylimidazo[1,2-a]pyridin-3-yl)pyrimidin-2-yl)-N^4-(tetrahydro-2H-pyran-4-yl) cyclohexane-1,4-diamine] | 0.016 | 3 | 6 | 0.074 | 0.094 | – | – | –
2 | Cc1cnc(N[C@H]2CC[C@H](N)CC2)nc1-c1cnc2ccc(Nc3ccncc3)cn12 [Compound 134, (1r,4r)-N^1-(5-Methyl-4-(6-(pyridin-4-ylamino)imidazo [1,2-a]pyridin-3-yl)pyrimidin-2-yl)cyclohexane-1,4-diamine] | 0.12 | 11 | 22 | – | – | 43 | 28 | –
3 | Cc1cnc(N[C@H]2CC[C@H](N)CC2)nc1-c1cnc2ccc(Nc3ccc(F)nc3)cn12 [Compound 123, (1r,4r)-N^1-(4-(6-((6-Fluoropyridin-3-yl)amino)imidazo [1,2-a]pyridin-3-yl)-5-methylpyrimidin-2-yl)cyclohexane-1,4-diamine] | 0.011 | 31 | – | 1.53 | 0.89 | – | – | 0.3
4 | CN[C@H]1CC[C@H](Nc2ncc(C)c(-c3cnc4ccc(-c5ccccc5)cn34)n2)CC1 [Compound 133, (1r,4r)-N^1-Methyl-N^4-(5-methyl-4-(6-phenylimidazo[1,2-a]pyridin-3-yl)pyrimidin-2-yl)cyclohexane-1,4-diamine] | 0.14 | 60 | 40 | – | – | 22 | 10 | –
5 | Cc1cnc(N[C@H]2CC[C@H](N3CCC3)CC2)nc1-c1cnc2ccc(Nc3cncnc3)cn12 [Compound 141, 3-(2-(((1r,4r)-4-(Azetidin-1-yl)cyclohexyl)amino)-5-methylpyrimidin-4-yl)-N-(pyrimidin-5-yl)imidazo [1,2-a]pyridin-6-amine] | 0.011 | 15 | – | 0.532 | – | – | 30 | 0.064
6 | Cc1cnc(N[C@H]2CC[C@H](N3CCC3)CC2)nc1-c1cnc2ccc(Nc3cncc(F)c3)cn12 [Compound 139, 3-(2-(((1r,4r)-4-(Azetidin-1-yl)cyclohexyl)amino)-5-methylpyrimidin-4-yl)-N-(5-fluoropyridin-3-yl)imidazo [1,2-a]pyridin-6-amine] | 0.044 | 14 | 4 | – | – | 31 | 15 | –
7 | CNC(=O)N[C@H]1CC[C@H](Nc2ncc(C)c(-c3cnc4ccc(-c5ccccc5)cn34)n2)CC1 [Compound 169, 1-Methyl-3-((1r,4r)-4-((5-methyl-4-(6-phenylimidazo [1,2-a]pyridin-3-yl)pyrimidin-2-yl)amino)cyclohexyl) urea] | 1.88 | 81 | 31 | – | – | – | 35 | –
8 | Fc1cnc(NC2CCNCC2)nc1-c1cnc2cc(-c3ccccc3)ccn12 [Compound 170, 5-Fluoro-4-(7-phenylimidazo[1,2-a]pyridin-3-yl)-N-(piperidin-4-yl)pyrimidin-2-amine] | > 5 | 5 | 7 | – | – | – | 18 | –
9 | COCCN[C@H]1CC[C@H](Nc2ncc(C)c(-c3cnc4ccc(-c5ccccc5)cn34)n2)CC1 [Compound 129, (1r,4r)-N^1-(2-Methoxyethyl)-N^4-(5-methyl-4-(6-phenylimidazo[1,2-a]pyridin-3-yl)pyrimidin-2-yl) cyclohexane-1,4-diamine] | 0.12 | 32 | 0 | – | – | 42 | 18 | –
10 | Cc1cnc(NC2CCC(N3CCNC(=O)C3)CC2)nc1-c1cnc2ccc(Nc3cncnc3)cn12 (centres unmarked) [Compound 168, 4-(4-((5-Methyl-4-(6-(pyrimidin-5-ylamino)imidazo [1,2-a]pyridin-3-yl)pyrimidin-2-yl)amino)cyclohexyl) piperazin-2-one] | 0.181 | 22 | 11 | – | – | – | 55 | –
11 | Fc1cnc(NC2CCN(CC3CC3)CC2)nc1-c1cnc2ccc(-c3ccccc3)cn12 [Compound 145, N-(1-(Cyclopropylmethyl)piperidin-4-yl)-5-fluoro-4-(6-phenylimidazo[1,2-a]pyridin-3-yl)pyrimidin-2-amine] | 0.402 | 41 | 22 | 0.222 | 0.199 | – | – | –
12 | CS(=O)(=O)N1CCC(Nc2ncc(F)c(-c3cnc4cc(-c5ccccc5)ccn34)n2)CC1 [Compound 171, 5-Fluoro-N-(1-(methylsulfonyl)piperidin-4-yl)-4-(7-phenylimidazo[1,2-a]pyridin-3-yl)pyrimidin-2-amine] | > 5 | 47 | 35 | – | – | – | 65 | –
13 | Cc1cnc(N[C@H]2CC[C@H](N)CC2)nc1-c1cnc2cc(F)c(-c3ccccc3)cn12 [Compound 159, (1r,4r)-N^1-(4-(7-Fluoro-6-phenylimidazo[1,2-a]pyridin-3-yl)-5-methylpyrimidin-2-yl)cyclohexane-1,4-diamine] | 0.061 | 43 | 11 | – | – | 31 | 20 | –
14 | O[C@H]1CC[C@H](Nc2ncc(Cl)c(-c3cnc4ccc(-c5ccc(F)cc5)cn34)n2)CC1 [Compound 165, (1r,4r)-4-((5-Chloro-4-(6-(4-fluorophenyl)imidazo[1,2-a]pyridin-3-yl)pyrimidin-2-yl)amino)cyclohexan-1-ol] | 0.93 | 61 | 51 | – | – | – | 24 | –
15 | COc1ccc(-c2ccc3ncc(-c4nc(N[C@H]5CC[C@H](O)CC5)ncc4Cl)n3c2)cn1 [Compound 167, (1r,4r)-4-((5-Chloro-4-(6-(6-methoxypyridin-3-yl)imidazo[1,2-a]pyridin-3-yl)pyrimidin-2-yl)amino) cyclohexan-1-ol] | 0.49 | 66 | 4 | – | – | – | 49 | –
16 | COc1ccc(Nc2ccc3ncc(-c4nc(N[C@H]5CC[C@H](N)CC5)ncc4C)n3c2)cn1 [Compound 127, (1r,4r)-N^1-(4-(6-((6-Methoxypyridin-3-yl)amino)imidazo [1,2-a]pyridin-3-yl)-5-methylpyrimidin-2-yl)cyclohexane-1,4-diamine] | 0.045 | 32 | 0 | – | – | 34 | 39 | –
17 | O[C@H]1CC[C@H](Nc2ncc(Cl)c(-c3cnc4ccc(-c5cccnc5)cn34)n2)CC1 [Compound 166, (1r,4r)-4-((5-Chloro-4-(6-(pyridin-3-yl)imidazo[1,2-a]pyridin-3-yl)pyrimidin-2-yl)amino)cyclohexan-1-ol] | 1.28 | 54 | 8 | – | – | – | 33 | –
18 | CNC(=O)N[C@H]1CC[C@H](Nc2ncc(C)c(-c3cnc4ccc(Nc5cncnc5)cn34)n2)CC1 [Compound 172, 1-Methyl-3-((1r,4r)-4-((5-methyl-4-(6-(pyrimidin-5-ylamino)imidazo[1,2-a]pyridin-3-yl)pyrimidin-2-yl)amino)cyclohexyl)urea] | 0.005 | 6 | 2 | – | – | – | 21 | –
19 | CCS(=O)(=O)N1CCC(Nc2ncc(F)c(-c3cnc4ccc(-c5ccccc5)cn34)n2)CC1 [Compound 163, N-(1-(Ethylsulfonyl)piperidin-4-yl)-5-fluoro-4-(6-phenylimidazo[1,2-a]pyridin-3-yl)pyrimidin-2-amine] | 4.57 | 61 | 0 | – | – | – | 5 | –
